IC50 data for 17 compounds are collected here from patent publication US20240109918A1, “HETEROCYCLIC COMPOUNDS AND USES THEREOF” (Kumquat Biosciences Inc., priority 2022, published 2024).

Assay [1] addresses T1, KRASG12D (Homo sapiens, UniProt P01116, G12D).
T1 construct: made in house; host or cells: E. coli BL21 (DE3)
The experiment in a line: Bio-Biochem-PPI-HTRF Ras-SOS1 interaction assay (KRAS G12D). The class given is biochemical. The conditions noted are these: 5 nM. An outline of the steps: (§1)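 Inhibition of His-hSOS1 binding to GST-tagged wild-type or G12D K-Ras is read as HTRF ratio (665/620 nm) following incubation of about 10 minutes or longer, and IC50 values are fitted from duplicate six-point titrations.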
(In general: TR-FRET usually uses a lanthanide donor and a delayed reading to cut background.)

In assay [2] the target is T2, KRASwt (Homo sapiens, UniProt P01116).
T2 construct: made in house; host or cells: E. coli BL21 (DE3)
The experiment in a line: Bio-Biochem-PPI-HTRF Ras-SOS1 interaction assay (KRAS wt). The class given is biochemical. The conditions noted are these: 5 nM. Summed up:
as §1

T2 sequence (P01116 1-188 isoform P01116-2): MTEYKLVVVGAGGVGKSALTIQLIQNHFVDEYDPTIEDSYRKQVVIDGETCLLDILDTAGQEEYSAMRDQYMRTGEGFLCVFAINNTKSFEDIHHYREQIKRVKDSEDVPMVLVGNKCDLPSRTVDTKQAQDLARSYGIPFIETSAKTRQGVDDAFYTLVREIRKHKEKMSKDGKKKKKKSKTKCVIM
T1 sequence (P01116 1-188 isoform P01116-2 G12D): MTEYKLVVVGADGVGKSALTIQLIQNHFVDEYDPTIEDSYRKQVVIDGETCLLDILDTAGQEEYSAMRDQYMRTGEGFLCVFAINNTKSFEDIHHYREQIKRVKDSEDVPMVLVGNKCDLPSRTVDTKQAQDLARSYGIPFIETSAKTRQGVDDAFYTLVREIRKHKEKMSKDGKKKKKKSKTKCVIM

For orientation: IC50 means the midpoint of a concentration-inhibition curve. Read a high IC50 as a need for much substance. Regarding `N#Cc1c(N)sc2c(F)ccc(-c3c(Cl)cc4c(N5CCOC6(CN(C#N)C6)C5)nc(OC[C@@]56CCCN5C[C@H](F)C6)nc4c3F)c12` [compound 190, 8-(7-(2-amino-3-cyano-7-fluorobenzo[b]thiophen-4-yl)-6-chloro-8-fluoro-2-(((2R,7aS)-2-fluorotetrahydro-1H-pyrrolizin-7a(5H)-yl)methoxy)quinazolin-4-yl)-5-oxa-2,8-diazaspiro[3.5]nonane-2-carbonitrile], the IC50 in assay [1] and in assay [2] was less than 5 µM in each case.

For the compound `Nc1nc2c(-c3c(Cl)cc4c(N5CCC6(CC5)CN(S(=O)(=O)F)C6)nc(OC[C@@]56CCCN5C[C@H](F)C6)nc4c3F)ccc(F)c2s1` [compound 191, 7-(7-(2-amino-7-fluorobenzo[d]thiazol-4-yl)-6-chloro-8-fluoro-2-(((2R,7aS)-2-fluorotetrahydro-1H-pyrrolizin-7a(5H)-yl)methoxy)quinazolin-4-yl)-2,7-diazaspiro[3.5]nonane-2-sulfonyl fluoride], the IC50 was no less than 5 µM in assay [1] and less than 5 µM in assay [2].

Turning to `N#Cc1c(N)sc2c(F)ccc(-c3c(Cl)cc4c(N5CCCCC6(CN(C(=O)[C@H]7[C@@H]8COC[C@@H]87)C6)C5)nc(OCC56CCCN5C[C@H](F)C6)nc4c3F)c12` (stereo partly drawn) [compound 192, 4-(4-(2-((1R,5S,6r)-3-oxabicyclo[3.1.0]hexane-6-carbonyl)-2,6-diazaspiro[3.6]decan-6-yl)-6-chloro-8-fluoro-2-(((2R,7aS)-2-fluorotetrahydro-1H-pyrrolizin-7a(5H)-yl)methoxy)quinazolin-7-yl)-2-amino-7-fluorobenzo [b]thiophene-3-carbonitrile], the IC50 in assay [1] and in assay [2] was less than 5 µM each time.

Take `N#Cc1c(N)sc2c(F)ccc(-c3c(Cl)cc4c(N5CCCCC6(CN(C(=O)[C@H]7C[C@H]7F)C6)C5)nc(OC[C@@]56CCCN5C[C@H](F)C6)nc4c3F)c12` [compound 193, 2-amino-4-(6-chloro-8-fluoro-4-(2-((1R,2R)-2-fluorocyclopropane-1-carbonyl)-2,6-diazaspiro[3.6]decan-6-yl)-2-(((2R,7aS)-2-fluorotetrahydro-1H-pyrrolizin-7a(5H)-yl)methoxy)quinazolin-7-yl)-7-fluorobenzo[b]thiophene-3-carbonitrile]: the IC50 in assay [1] and in assay [2] was less than 5 µM in each case.

With `N#CCC(=O)N1CC2(CCCCN(c3nc(OC[C@@]45CCCN4C[C@H](F)C5)nc4c(F)c(-c5ccc(F)c6sc(N)c(C#N)c56)c(Cl)cc34)C2)C1` [compound 194, 2-amino-4-(6-chloro-4-(2-(2-cyanoacetyl)-2,6-diazaspiro[3.6]decan-6-yl)-8-fluoro-2-(((2R,7aS)-2-fluorotetrahydro-1H-pyrrolizin-7a(5H)-yl)methoxy)quinazolin-7-yl)-7-fluorobenzo[b]thiophene-3-carbonitrile], the IC50 in assay [1] and in assay [2] was less than 5 µM throughout.

`N#Cc1c(N)sc2c(F)ccc(-c3c(Cl)cc4c(N5CCCCC6(C5)CN(S(=O)(=O)C5CC5)C6)nc(OC[C@@]56CCCN5C[C@H](F)C6)nc4c3F)c12` [compound 195, 2-amino-4-(6-chloro-4-(2-(cyclopropylsulfonyl)-2,6-diazaspiro[3.6]decan-6-yl)-8-fluoro-2-(((2R,7aS)-2-fluorotetrahydro-1H-pyrrolizin-7a(5H)-yl)methoxy)quinazolin-7-yl)-7-fluorobenzo[b]thiophene-3-carbonitrile]: the half-maximal inhibitory concentration (IC50) in assay [1] and in assay [2] was less than 5 µM throughout.

`N#Cc1c(N)sc2c(F)ccc(-c3c(Cl)cc4c(N5CCCCC6(CN(C(=O)N7CC(C(F)F)C7)C6)C5)nc(OC[C@@]56CCCN5C[C@H](F)C6)nc4c3F)c12` [compound 196, 2-amino-4-(6-chloro-4-(2-(3-(difluoromethyl)azetidine-1-carbonyl)-2,6-diazaspiro[3.6]decan-6-yl)-8-fluoro-2-(((2R,7aS)-2-fluorotetrahydro-1H-pyrrolizin-7a(5H)-yl)methoxy)quinazolin-7-yl)-7-fluorobenzo[b]thiophene-3-carbonitrile]: the IC50 in assay [1] and in assay [2] was less than 5 µM throughout.

As to `CC(C)C(=O)N1CC2(CCCCN(c3nc(OC[C@@]45CCCN4C[C@H](F)C5)nc4c(F)c(-c5ccc(F)c6sc(N)c(C#N)c56)c(Cl)cc34)C2)C1` [compound 197, 2-amino-4-(6-chloro-8-fluoro-2-(((2R,7aS)-2-fluorotetrahydro-1H-pyrrolizin-7a(5H)-yl)methoxy)-4-(2-isobutyryl-2,6-diazaspiro[3.6]decan-6-yl)quinazolin-7-yl)-7-fluorobenzo[b]thiophene-3-carbonitrile], the IC50 in assay [1] and in assay [2] was less than 5 µM throughout.

As for `N#Cc1c(N)sc2c(F)ccc(-c3c(F)c4nc(OC[C@@]56CCCN5C[C@H](F)C6)nc(N5CCCCC6(CNC6)C5)c4c(=O)n3C3CC3)c12` [compound 198, 2-amino-4-(6-cyclopropyl-8-fluoro-2-(((2R,7aS)-2-fluorotetrahydro-1H-pyrrolizin-7a(5H)-yl)methoxy)-5-oxo-4-(2,6-diazaspiro[3.6]decan-6-yl)-5,6-dihydropyrido[4,3-d]pyrimidin-7-yl)-7-fluorobenzo[b]thiophene-3-carbonitrile], the half-maximal inhibitory concentration (IC50) in assay [1] and in assay [2] was less than 5 µM each time.

Regarding `N#Cc1c(N)sc2c(F)ccc(-c3c(Cl)cc4c(N5CCCCC6(CN(C(=O)C78CC(F)(C7)C8)C6)C5)nc(OC[C@@]56CCCN5C[C@H](F)C6)nc4c3F)c12` [compound 199, 2-amino-4-(6-chloro-8-fluoro-4-(2-(3-fluorobicyclo[1.1.1]pentane-1-carbonyl)-2,6-diazaspiro[3.6]decan-6-yl)-2-(((2R,7aS)-2-fluorotetrahydro-1H-pyrrolizin-7a(5H)-yl)methoxy)quinazolin-7-yl)-7-fluorobenzo[b]thiophene-3-carbonitrile], the IC50 in assay [1] and in assay [2] was less than 5 µM in each case.

In the case of `N#Cc1c(N)sc2c(F)ccc(-c3c(Cl)cc4c(N5CCOC6(CN(C(=O)C(F)Cl)C6)C5)nc(OC[C@@]56CCCN5C[C@H](F)C6)nc4c3F)c12` (stereo partly drawn) [compound 200, 2-amino-4-(6-chloro-4-(2-(2-chloro-2-fluoroacetyl)-5-oxa-2,8-diazaspiro[3.5]nonan-8-yl)-8-fluoro-2-(((2R,7aS)-2-fluorotetrahydro-1H-pyrrolizin-7a(5H)-yl)methoxy)quinazolin-7-yl)-7-fluorobenzo[b]thiophene-3-carbonitrile], the IC50 in assay [1] and in assay [2] was less than 5 µM throughout.

As to `N#Cc1c(N)sc2c(F)ccc(-c3c(Cl)cc4c(N5CCCCC6(CN(C(=O)C7CC7)C6)C5)nc(OC[C@@]56CCCN5C[C@H](F)C6)nc4c3F)c12` [compound 201, 2-amino-4-(6-chloro-4-(2-(cyclopropanecarbonyl)-2,6-diazaspiro[3.6]decan-6-yl)-8-fluoro-2-(((2R,7aS)-2-fluorotetrahydro-1H-pyrrolizin-7a(5H)-yl)methoxy)quinazolin-7-yl)-7-fluorobenzo[b]thiophene-3-carbonitrile], the IC50 in assay [1] and in assay [2] was less than 5 µM throughout.

With `N#Cc1c(N)sc2c(F)ccc(-c3c(Cl)cc4c(N5CCCCC6(CN(C(=O)C(F)(F)C(F)(F)F)C6)C5)nc(OC[C@@]56CCCN5C[C@H](F)C6)nc4c3F)c12` [compound 202, 2-amino-4-(6-chloro-8-fluoro-2-(((2R,7aS)-2-fluorotetrahydro-1H-pyrrolizin-7a(5H)-yl)methoxy)-4-(2-(2,2,3,3,3-pentafluoropropanoyl)-2,6-diazaspiro[3.6]decan-6-yl)quinazolin-7-yl)-7-fluorobenzo[b]thiophene-3-carbonitrile], the IC50 in assay [1] and in assay [2] was less than 5 µM in each case.

For the compound `N#Cc1c(N)sc2c(F)ccc(-c3c(Cl)cc4c(N5CCCCC6(CN(C(=O)CC7CCO7)C6)C5)nc(OC[C@@]56CCCN5C[C@H](F)C6)nc4c3F)c12` (stereo partly drawn) [compound 203, 2-amino-4-(6-chloro-8-fluoro-2-(((2R,7aS)-2-fluorotetrahydro-1H-pyrrolizin-7a(5H)-yl)methoxy)-4-(2-(2-(oxetan-2-yl)acetyl)-2,6-diazaspiro[3.6]decan-6-yl)quinazolin-7-yl)-7-fluorobenzo[b]thiophene-3-carbonitrile], the IC50 in assay [1] and in assay [2] was less than 5 µM in each case.

With `N#Cc1c(N)sc2c(F)ccc(-c3c(Cl)cc4c(N5CCCCC6(CN(C(=O)CC7CCOCC7)C6)C5)nc(OC[C@@]56CCCN5C[C@H](F)C6)nc4c3F)c12` [compound 204, 2-amino-4-(6-chloro-8-fluoro-2-(((2R,7aS)-2-fluorotetrahydro-1H-pyrrolizin-7a(5H)-yl)methoxy)-4-(2-(2-(tetrahydro-2H-pyran-4-yl)acetyl)-2,6-diazaspiro[3.6]decan-6-yl)quinazolin-7-yl)-7-fluorobenzo[b]thiophene-3-carbonitrile], the IC50 in assay [1] and in assay [2] was less than 5 µM in each case.

On to `COC1CN(C(=O)N2CC3(CCCN(c4nc(O[C@@H](C)[C@@H]5CCCN5C)nc5c(F)c(-c6ccc(F)c7sc(N)c(C#N)c67)c(Cl)cc45)C3)C2)C1` [compound 205, 2-amino-4-(6-chloro-8-fluoro-4-(2-(3-methoxyazetidine-1-carbonyl)-2,6-diazaspiro[3.5]nonan-6-yl)-2-((S)-1-((S)-1-methylpyrrolidin-2-yl)ethoxy)quinazolin-7-yl)-7-fluorobenzo[b] thiophene-3-carbonitrile], for which the IC50 in assay [1] and in assay [2] was less than 5 µM each time.

On to `N#Cc1c(N)sc2c(F)ccc(-c3c(Cl)cc4c(N5CCCCC6(CN(C(=O)C(F)(F)F)C6)C5)nc(OC[C@@]56CCCN5C[C@H](F)C6)nc4c3F)c12` [compound 206, 2-amino-4-(6-chloro-8-fluoro-2-(((2R,7aS)-2-fluorotetrahydro-1H-pyrrolizin-7a(5H)-yl)methoxy)-4-(2-(2,2,2-trifluoroacetyl)-2,6-diazaspiro[3.6]decan-6-yl)quinazolin-7-yl)-7-fluorobenzo[b]thiophene-3-carbonitrile], for which the IC50 in assay [1] and in assay [2] was less than 5 µM in each case.
